Legend:
[1] = test system: CT26-G12C tumors; experiment: Single cell RNA sequencing of CT26-G12C tumors; type: in vivo, mouse
Excerpt: UMAP projections were generated from scRNA-seq data and used for visualization. Cell type clusters detected in DAPI-sorted cells from CT26-G12C SC. Tumors (FIG. 4A), or from CT26-G12C in vitro cell line (FIG. 4D) treated with the indicated conditions are shown, with cell % percentage histogram and gene-level expression heat map calculated for each cluster.

[2] = test system: CT26-G12C colon cancer cells; type: in vivo, mouse
Description: CT26-G12C colon cancer cells were SC. Implanted in BALB/C mice, and left to develop SC. Tumors for 20 days, then treated with oral gavage of 3 mg/kg/mouse TRA or 30 mg/kg/mouse AMG-510 for 6 days alone or for 20 days with anti-PD1 Ab (IP 200 μg/mouse twice a week). Tumor size was measured till mice being sacrificed. tumors were collected and stained for T cell, and Myeloid cell markers mouse antibodies (anti-CD45, anti-CD8, anti-CD4, anti-CD3, anti-CD69, anti-PD1, anti-CD25, anti-CD62L, anti-CD44, anti-F4/80, anti-CD11C, anti-CD11b, anti-Ly6G, ant-Ly6C and Live/Dead near IR viability dye). CM (central memory): CD62L+CD44+, EM (Effector memory) CD62L-CD44+. Mice survival was assessed using Kaplan-Meier survival test.

[3] = test system: HCC44-PSCA; experiment: HCC44-PSCA SC tumors in NSG mice with IV CAR-T transfer (human T cell ACT mouse model); type: in vivo
Description: Inoculated in NSG mice and received IV CART transfer with AMG-510 Orla gavage (30 mg/Kg/Mouse for 6 days then sacrificed and tumors were collected and stained with T cells markers, or for 20 days with IP anti-human PD1 Ab (twice a week) for Tumor growth curve.

C=CC(=O)N1CCN(c2nc(=O)n(-c3c(C)ccnc3C(C)C)c3nc(-c4c(O)cccc4F)c(F)cc23)[C@@H](C)C1 (atropisomer, axis not shown) [Sotorasib, 6-fluoro-7-(2-fluoro-6-hydroxyphenyl)-(1/W)-1-[4-methyl-2-(propan-2-yl)pyridin-3-yl]-4-[(2S)-2-methyl-4-(prop-2-enoyl)piperazin-1-yl]pyrido[2,3-cf]pyrimidin-2 (1/-/)-one]
immuno-active and growth-active tumor clusters (scRNA-seq, cell % per cluster) ([1]; CT26-G12C SC tumors and in vitro cell line): enriches the immuno-active and diminishes growth-active tumor clusters
tumor clusters by top upregulated pathways (scRNA-seq) ([1]; Sotorasib-treated CT26-G12C tumors): enrichment of tumor clusters with TNFα and IFNγ as top upregulated pathways
expansion of tumor infiltrating lymphocytes (TILs) ([2]; CT26-G12C heterotrophic mouse model, 30 mg/kg/mouse oral gavage, 6 days): significantly promoted the expansion of tumor infiltrating lymphocytes
mouse survival (Kaplan-Meier) ([2]; combined with anti-PD-1, CT26-G12C model): prolonging mouse survival
tumor microenvironment / T cell effector phenotype ([2]; mouse tumor models): strikingly augmented T cell effector phenotype
control of CT26-G12C tumor growth ([2]; mouse, in vivo, ip): synergized with anti-PD-1 in controlling CT26-G12C tumor growth
anti-tumor effect of CAR-T adoptive cell transfer and anti-PD1 ([3]; combined with CAR-T adoptive cell transfer and anti-PD1 treatment): enhanced their anti-tumor effect
expansion of tumor infiltrating lymphocytes (TILs) ([3]; human T cell adoptive therapy (ACT) mouse model, 30 mg/Kg/Mouse oral gavage, 6 days): significantly promoted the expansion of tumor infiltrating lymphocytes
